Here are results for 16 molecules from PubChem BioAssay (NCI).

The structures appear in SMILES notation.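 48-hour exposure; five concentrations; linearly interpolated endpoints. GI50: concentration for 50% inhibition of growth. At the TGI there is no net growth.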 Bounds are passed on as bounds.

What all share (experiment): growth of human tumour cells (NCI), 48 h
The test system of assay [1] is ACHN renal.
The subject of assay [2] is DLD-1 colon.
Assay [3] relates to HCT-116 colon.
In assay [4] the test system is HT29 colon.
The test system of assay [5] is LXFL 529 NSCLC.
In assay [6] the test system is U251 CNS.
The test system of assay [7] is IGROV1 ovarian.
Assay [8] has as its system UACC-62 melanoma.
Assay [9] has as its system MDA-MB-435.
Assay [10] relates to PC-3 prostate.

`CCc1cccc(C)c1NC(=O)CC1C(=O)Nc2ccccc2S1=O` (stereo not drawn): the TGI in assay [1] was > 100 µM; in [2], > 100 µM; in assay [3] it was > 100 µM; in [4], > 100 µM; in assay [5] it was > 100 µM; in [6], 55.4 µM.
As for `N#Cc1c(-c2ccco2)cc(-c2ccc(N)cc2)[nH]c1=O`, the TGI in assay [1], in assay [2], in [3], in [4], in [7] and in assay [5] was > 100 µM throughout. Also, the TGI in [6] and in [8] was > 100 µM throughout.
As to `O=C1C2[C@@H](C(=O)N1c1ccc(Br)cc1)C13C(=CC2([N+](=O)[O-])[C@@H]2C(=O)N(c4ccc(Br)cc4)C(=O)[C@@H]21)c1ccccc1N3c1ccccc1` (stereo partly drawn), the TGI in [1], in assay [2] and in assay [6] was > 100 µM each time.
For the molecule `NC(=S)N/N=C1\CCCC\C1=C/c1ccccc1`, the TGI in [1] is > 100 µM; in assay [2], > 100 µM; in [3], > 100 µM; in [4] it was 50.3 µM; in assay [7], 71.5 µM; in assay [5], > 100 µM. The TGI in assay [6] and in assay [8] was > 100 µM in each case.
Consider `CC12CCC(=O)N1c1cccnc1N2` (stereo not drawn), for which the TGI in [1], in assay [2], in assay [4], in assay [7], in [5] and in [6] was > 100 µM throughout. In assay [8], the TGI is > 100 µM.
As for `Cc1ccc2c(c1-c1ccccc1)C(=O)OC2`, the TGI in [1], in [2], in [3], in [4], in [7] and in assay [5] was > 100 µM in each case. Also, the TGI is > 100 µM in assay [6] and 92.8 µM in [8].
In the case of `O=C1C=CC(=CC=C2C=CN(CCCCCCCCCCC(=O)NCCCCCCCCCCCC(=O)O)C=C2)C=C1`, the TGI in assay [1], in assay [2], in assay [3], in [4], in assay [7] and in assay [5] was > 100 µM each time. Moreover, the TGI in [6] and in [8] was > 100 µM in each case.
On to `CCOC(=O)C(C)(c1c(C)[nH]c2ccccc12)c1c(C)[nH]c2ccccc12`, for which the TGI in assay [1] was found to be 56.6 µM; in [2], 75.9 µM; in assay [3], 25 µM; in assay [4], 30.3 µM; in [7] it was 51.3 µM; in [5], 77.3 µM. Further, the TGI came to 33.4 µM in assay [6] and 29.6 µM in [8].
For `NC(CCc1ncc(C(=O)O)s1)C(=O)O` (stereo not drawn), the TGI in assay [1], in assay [2], in assay [3], in assay [4], in assay [7] and in [5] was > 100 µM each time. The TGI in assay [6] and in assay [8] was > 100 µM in each case.
`Cc1ccc(N2C(=O)N(c3ccc(C)cc3)C3(SC=NN3C)C2=O)cc1` (stereo not drawn): the TGI in assay [1], in assay [2], in assay [3], in [4], in assay [7] and in [5] was > 100 µM throughout. Also, the TGI in assay [6] and in assay [8] was > 100 µM throughout.
For `Cc1c(Cl)cccc1NC(=O)c1cccc([N+](=O)[O-])c1O`, the TGI is 62.5 µM in assay [1]; > 100 µM in assay [2]; 40 µM in assay [3]; 82 µM in assay [4]; > 83.2 µM in assay [7]; > 75.1 µM in assay [5]. Besides, the values for the TGI in assay [6] and in [8] were 77.5 µM and 7.74 µM, respectively.
`Cc1ccc2[c](c1)[Sn]([c]1ccccc1)([c]1ccccc1)[c]1cc(C)ccc1N2C`: the GI50 was 66.8 µM in assay [1]; 20.9 µM in assay [3]; 37.3 µM in assay [4]; 58.7 µM in assay [7]; 26.6 µM in assay [5]; 87.5 µM in assay [6]. In addition, the GI50 in assay [8] is 20.9 µM. The TGI in assay [1], in assay [3], in [4], in assay [7], in assay [5] and in assay [6] was > 100 µM throughout. Further, the TGI in assay [8] was > 100 µM.
In the case of `CCOc1ccc(N=Cc2c3ccccc3nc3ccccc23)cc1`, the TGI in [1], in [2], in [4], in [7], in assay [5] and in assay [6] was > 100 µM throughout. The TGI in assay [8] is > 100 µM.
With `O=[N+]([O-])c1ccc(Sc2c3ccccc3nc3ccccc23)cn1`, the TGI was 17.4 µM in assay [1]; 11.9 µM in assay [3]; 28 µM in [4]; > 64.7 µM in assay [7]; 33.2 µM in [9]; 38.1 µM in [10]. Besides, the TGI was > 60.1 µM in assay [6] and 35 µM in [8].
On to `COc1ccc(-c2ccc(NNC(=O)c3ccc(F)cc3)nn2)cc1OC`, for which the GI50 in [1] is > 100 µM; in assay [3], > 100 µM; in assay [4], > 100 µM; in assay [7] it was 63.3 µM; in assay [9] it was > 100 µM; in [10], 50.5 µM. Moreover, the GI50 in [6] and in assay [8] was > 100 µM in each case. The TGI in assay [1], in assay [3], in assay [4], in assay [7], in [9] and in [10] was > 100 µM each time. Further, the TGI in [6] and in [8] was > 100 µM each time.
For the molecule `Cc1c2c(C(N)=O)nccc2c(C)c2c1c1ccccc1n2Cc1ccccc1`, the TGI in assay [1] was 37.5 µM; in [3], 29 µM; in [4], 37.1 µM; in assay [7], 42.7 µM; in [9], > 100 µM; in assay [10], 27.7 µM. The TGI in [6] is 24.9 µM; in assay [8], > 100 µM.
